Experimental data taken from patent US20260001886A1, “ENPP1 INHIBITORS I” (RE Ventures I, LLC, priority 2024, published 2026).

Legend:
[1] = target: Human ENPP1 (Homo sapiens (Human), UniProt P22413)
Experimental: ENPP1 catalyses the hydrolysis of ATP into AMP+PPi. AMP production was monitored using Bellbrooks Transcreener AMP/GMP TR-FRET assay kit (Cat No. 3020-10K) according to the manufacturer's instructions. The assay was run with 50 mM Tris pH 7.5, 5 mM MgCl2, 150 mM NaCl, 0.005% Tween20 and distilled H2O. Antibody and tracer were diluted to 2 nM. […] Mouse ENPP1 was run at 15 pM with ATP at 400 nM. AMP produced in the assay by ENPP1 activity competes with a far-red tracer labelled AMP bound to an AMP specific antibody resulting in a decrease in TR-FRET. ENPP1 inhibition reduces AMP production and increases the TR-FRET signal.

[2] = target: human CA-I (CA1) (Homo sapiens (Human), UniProt P00915); experiment: Surface plasmon resonance, carbonic anhydrase I; settings: 25° C., CM5 chip
Experimental: (§1) Cytiva Biacore S200, T200 and 3000 machines were used for all SPR experiments. […] For carbonic anhydrases, data were collected at a constant temperature of 25° C. Human CA-I (CA1) or human CA-II (CA2) was captured via standard EDC/NHS protocol on a Biacore CM5 chip using standard protocols in HBS-N buffer (10 mM HEPES (pH 7.4), 150 mM NaCl) at ˜2000 RU. The experiments were run in PBS buffer containing 0.05% Tween 20 and 3% DMSO. All compounds were initially screened at concentrations ranging from 23 nM to 50 µM or 4.6 nM to 10 µM, injecting from the lowest to highest concentrations and adjusting appropriately for each compound for repeat experiments. Scrubber 2 (Biologic software) was used to process and analyse SPR data. […] Data for the inhibitors were referenced to those for a blank surface and blank injections to normalise for non-specific binding and drift. A DMSO calibration was run to remove excluded volume effect of binding responses between reference and target surface.

[3] = target: T1, human CA-II (CA2) (Homo sapiens (Human), UniProt P00918); experiment: Surface plasmon resonance, carbonic anhydrase II; settings: 25° C., CM5 chip
Experimental: as §1

[4] = target: T1, human CA-II (CA2); experiment: biochemical
Experimental: as §1

Human ENPP1, sequence (P22413 whole entry): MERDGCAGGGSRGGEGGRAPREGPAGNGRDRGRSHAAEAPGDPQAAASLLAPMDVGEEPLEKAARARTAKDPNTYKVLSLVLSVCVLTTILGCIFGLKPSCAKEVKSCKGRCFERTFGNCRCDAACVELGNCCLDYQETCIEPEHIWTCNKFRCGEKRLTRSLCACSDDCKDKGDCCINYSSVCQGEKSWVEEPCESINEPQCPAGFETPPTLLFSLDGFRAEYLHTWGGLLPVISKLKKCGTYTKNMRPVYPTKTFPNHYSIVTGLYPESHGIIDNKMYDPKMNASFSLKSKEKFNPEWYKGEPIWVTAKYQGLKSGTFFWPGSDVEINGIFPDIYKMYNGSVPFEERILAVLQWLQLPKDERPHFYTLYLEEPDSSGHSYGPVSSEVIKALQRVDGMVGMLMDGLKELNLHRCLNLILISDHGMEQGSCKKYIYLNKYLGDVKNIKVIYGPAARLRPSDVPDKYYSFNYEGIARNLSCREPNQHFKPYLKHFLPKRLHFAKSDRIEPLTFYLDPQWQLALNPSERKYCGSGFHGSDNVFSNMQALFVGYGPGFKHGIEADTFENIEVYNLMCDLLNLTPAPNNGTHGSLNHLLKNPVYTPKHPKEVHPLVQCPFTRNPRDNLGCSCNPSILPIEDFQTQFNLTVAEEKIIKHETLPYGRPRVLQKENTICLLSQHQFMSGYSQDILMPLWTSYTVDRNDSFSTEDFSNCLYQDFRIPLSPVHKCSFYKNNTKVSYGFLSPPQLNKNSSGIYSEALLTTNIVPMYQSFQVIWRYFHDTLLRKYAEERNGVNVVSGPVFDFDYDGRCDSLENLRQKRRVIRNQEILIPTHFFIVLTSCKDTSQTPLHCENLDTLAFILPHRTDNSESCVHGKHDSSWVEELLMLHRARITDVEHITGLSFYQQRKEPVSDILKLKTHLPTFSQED
human CA-I (CA1), sequence (P00915 whole entry): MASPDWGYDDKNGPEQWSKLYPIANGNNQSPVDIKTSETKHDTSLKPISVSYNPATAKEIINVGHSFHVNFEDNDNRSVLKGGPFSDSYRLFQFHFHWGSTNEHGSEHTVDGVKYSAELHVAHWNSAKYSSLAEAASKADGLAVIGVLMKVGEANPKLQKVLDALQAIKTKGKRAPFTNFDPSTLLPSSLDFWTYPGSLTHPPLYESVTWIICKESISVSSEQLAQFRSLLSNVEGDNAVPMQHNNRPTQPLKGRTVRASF

| Compound | EC50 [1] [µM] | CA1 human SPR pKD [2] | CA2 human SPR pKD [3] | Kd [4] [µM] |
| --- | --- | --- | --- | --- |
| CC(C)c1cn(C[C@H]2C[C@H]3C[C@@H]2CN3S(N)(=O)=O)c2nc(Cl)nn2c1=O [Compound 34, (1S,4S,5S)-5-((2-chloro-6-isopropyl-7-oxo-[1,2,4]triazolo[1,5-a]pyrimidin-4(7H)-yl)methyl)-2-azabicyclo[2.2.1]heptane-2-sulfonamide] | 0.0158 |  |  |  |
| Cc1nc2n(C[C@H]3C[C@H]4C[C@@H]3CN4S(N)(=O)=O)cc(-c3ccc(F)cc3)c(=O)n2n1 [Compound 14, (1S,4S,5S)-5-((6-(4-fluorophenyl)-2-methyl-7-oxo-[1,2,4]triazolo[1,5-a]pyrimidin-4(7H)-yl)methyl)-2-azabicyclo[2.2.1]heptane-2-sulfonamide] | 0.00398 | <1 | 3.0 |  |
| CC(C)c1cn(Cc2c(F)cc(S(C)(=N)=O)cc2F)c2nc(C3CC3)nn2c1=O (stereo not shown) [Compound 26, 2-cyclopropyl-4-(2,6-difluoro-4-(S-methylsulfonimidoyl)benzyl)-6-isopropyl-[1,2,4]triazolo[1,5-a]pyrimidin-7(4H)-one] | 0.0126 | 3.0 | 3.0 |  |
| CC(C)c1cn(Cc2ccc3c(c2)CCS3(=N)=O)c2nc(C3CC3)nn2c1=O (stereo not shown) [Compound 48, 2-Cyclopropyl-4-((1-imino-1-oxido-2,3-dihydro-1H-1l4-benzo[b]thiophen-5-yl)methyl)-6-isopropyl-[1,2,4]triazolo[1,5-a]pyrimidin-7(4H)-one] | 0.0316 |  |  |  |
| CC(C)c1cn(Cc2ccc(S(C)(=N)=O)cc2)c2nc(OC3CC3)nn2c1=O (stereo not shown) [Compound 25, 2-cyclopropoxy-6-isopropyl-4-(4-(S-methylsulfonimidoyl)benzyl)-[1,2,4]triazolo[1,5-a]pyrimidin-7(4H)-one] | 0.00631 |  |  |  |
| CC(C)c1cn(Cc2ccc([S@](C)(=N)=O)cc2)c2cc(C3CC3)nn2c1=O (single isomer, unassigned) [Compound 3A] |  |  |  | > 100000 |
| Cc1nc2n(C[C@H]3C[C@H]4C[C@@H]3CN4S(N)(=O)=O)cc(-c3cccc(F)c3)c(=O)n2n1 [Compound 6, (1S,4S,5S)-5-((6-(3-fluorophenyl)-2-methyl-7-oxo-[1,2,4]triazolo[1,5-a]pyrimidin-4(7H)-yl)methyl)-2-azabicyclo[2.2.1]heptane-2-sulfonamide] | 0.1 | 3.0 | 3.6 |  |
| CC(C)c1cn(Cc2ccc(S(C)(=N)=O)cc2)c2cc(C3CC3)nn2c1=O (stereo not shown) [Compound 57, 2-Cyclopropyl-6-isopropyl-4-(4-(S-methylsulfonimidoyl)benzyl)pyrazolo[1,5-a]pyrimidin-7(4H)-one] |  | <1 | 3.0 |  |
| CC(C)c1nn2c(=O)c(C(C)C)cn(C[C@H]3C[C@H]4C[C@@H]3CN4S(N)(=O)=O)c2c1F [Compound 43, (1S,4S,5S)-5-((3-Fluoro-2,6-diisopropyl-7-oxopyrazolo[1,5-a]pyrimidin-4(7H)-yl)methyl)-2-azabicyclo[2.2.1]heptane-2-sulfonamide] | 0.00398 | 3.0 | 4.8 |  |
| CC(C)c1cn(C[C@H]2C[C@H]3C[C@@H]2CN3S(N)(=O)=O)c2c(C#N)c(C3CC3)nn2c1=O [Compound 45, (1S,4S,5S)-5-((3-Cyano-2-cyclopropyl-6-isopropyl-7-oxopyrazolo[1,5-a]pyrimidin-4(7H)-yl)methyl)-2-azabicyclo[2.2.1]heptane-2-sulfonamide] | 0.00631 |  |  |  |
| CC(C)c1cn(Cc2ccc([S@@](=N)(=O)C(C)C)cc2)c2nc(C3CC3)nn2c1=O (single isomer, unassigned) [Compound 68] | 0.00631 |  |  |  |
| CC(C)c1cn(Cc2ccc(S(C)(=N)=O)cc2F)c2nc(C3CC3)nn2c1=O (stereo not shown) [Compound 12, 2-cyclopropyl-4-(2-fluoro-4-(S-methylsulfonimidoyl)benzyl)-6-isopropyl-[1,2,4]triazolo[1,5-a]pyrimidin-7(4H)-one] |  | <1 | 3.0 |  |
| CC(C)c1cn(Cc2ccc([S@](C)(=N)=O)cc2F)c2nc(C3CC3)nn2c1=O (single isomer, unassigned) [Compound 69] |  | <1 | <1 |  |
| CC(C)c1cn(Cc2ccc3c(c2)OCCS3(=N)=O)c2nc(C3CC3)nn2c1=O (stereo not shown) [Compound 53, 2-Cyclopropyl-4-((4-imino-4-oxido-3,4-dihydro-2H-4lambda4-benzo[b][1,4]oxathiin-7-yl)methyl)-6-isopropyl-[1,2,4]triazolo[1,5-a]pyrimidin-7(4H)-one] | 0.1 |  |  |  |
| Cc1nc2n(C[C@H]3C[C@H]4C[C@@H]3CN4S(N)(=O)=O)cc(-c3cccnc3)c(=O)n2n1 [Compound 2, (1S,4S,5S)-5-((2-methyl-7-oxo-6-(pyridin-3-yl)-[1,2,4]triazolo[1,5-a]pyrimidin-4(7H)-yl)methyl)-2-azabicyclo[2.2.1]heptane-2-sulfonamide] | 0.251 |  |  |  |
| Cc1nn2c(=O)c(C(C)C)cn(C[C@H]3C[C@H]4C[C@@H]3CN4S(N)(=O)=O)c2c1Cl [Compound 4, (1S,4S,5S)-5-((3-chloro-6-isopropyl-2-methyl-7-oxopyrazolo[1,5-a]pyrimidin-4(7H)-yl)methyl)-2-azabicyclo[2.2.1]heptane-2-sulfonamide] |  | 3.0 | 4.9 |  |

| Compound | EC50 [1] [µM] | CA1 human SPR pKD [2] | CA2 human SPR pKD [3] | Kd [4] [µM] |
| --- | --- | --- | --- | --- |
| CC(C)c1cn(Cc2ccc(S(=N)(=O)C(C)C)cc2)c2nc(C3CC3)nn2c1=O (stereo not shown) [Compound 64, 2-Cyclopropyl-6-isopropyl-4-(4-(propan-2-ylsulfonimidoyl)benzyl)-[1,2,4]triazolo[1,5-a]pyrimidin-7(4H)-one] | 0.00794 |  |  |  |
| CC(C)c1cn(Cc2ccc([S@@](C)(=N)=O)cc2)c2cc(C3CC3)nn2c1=O (single isomer, unassigned) [Compound 3B] |  |  |  | > 100000 |
| CC(C)c1cn(Cc2ccc(S(C)(=N)=O)cc2F)c2cc(C3CC3)nn2c1=O (stereo not shown) [Compound 62, 2-Cyclopropyl-4-(2-fluoro-4-(S-methylsulfonimidoyl)benzyl)-6-isopropylpyrazolo[1,5-a]pyrimidin-7(4H)-one] |  | <1 | 3.0 |  |
| Cc1cc2n(Cc3ccc([S@](C)(=N)=O)cc3)cc(C(C)C)c(=O)n2n1 (single isomer, unassigned) [Compound 9B] |  | <1 | <1 |  |
| COc1cccc2c1nn1c(=O)c(C(C)C)cn(C[C@H]3C[C@H]4C[C@@H]3CN4S(N)(=O)=O)c21 [Compound 42, (1S,4S,5S)-5-((3-Isopropyl-7-methoxy-4-oxopyrimido[1,2-b]indazol-1 (4H)-yl)methyl)-2-azabicyclo[2.2.1]heptane-2-sulfonamide] |  | 3.0 | 4.5 |  |
| Cc1cc([S@@](C)(=N)=O)ccc1Cn1cc(C(C)C)c(=O)n2nc(C3CC3)cc12 (single isomer, unassigned) [Compound 66] | 0.00126 |  |  |  |
| COc1c(C2CC2)nn2c(=O)c(C(C)C)cn(C[C@H]3C[C@H]4C[C@@H]3CN4S(N)(=O)=O)c12 [Compound 44, (1S,4S,5S)-5-((2-Cyclopropyl-6-isopropyl-3-methoxy-7-oxopyrazolo[1,5-a]pyrimidin-4(7H)-yl)methyl)-2-azabicyclo[2.2.1]heptane-2-sulfonamide] | 0.00501 | 3.0 | 4.2 |  |
| Cc1nc2n(Cc3ccc4c(c3)CCCS4(=N)=O)cc(C(C)C)c(=O)n2n1 (stereo not shown) [Compound 52, 4-((1-Imino-1-oxido-1/4-thiochroman-6-yl)methyl)-6-isopropyl-2-methyl-[1,2,4]triazolo[1,5-a]pyrimidin-7(4H)-one] | 0.126 |  |  |  |
| CC(C)c1cn(Cc2ccc(S(C)(=N)=O)cc2)c2cc(C3CC3)nn2c1=O (racemic) [3 Rac] |  |  |  | > 100000 |
| CNc1nc(S(N)(=O)=O)ccc1Cn1cc(C(C)C)c(=O)n2nc(C3CC3)nc12 [Compound 29, 5-((2-cyclopropyl-6-isopropyl-7-oxo-[1,2,4]triazolo[1,5-a]pyrimidin-4(7H)-yl)methyl)-6-(methylamino)pyridine-2-sulfonamide] |  |  |  | 31.6 |
| CC(C)c1cn(C[C@H]2C[C@H]3C[C@@H]2CN3S(N)(=O)=O)c2c3cccnc3nn2c1=O [Compound 41, (1S,4S,5S)-5-((3-Isopropyl-4-oxopyrido[2′,3′: 3,4]pyrazolo[1,5-a]pyrimidin-1 (4H)-yl)methyl)-2-azabicyclo[2.2.1]heptane-2-sulfonamide] |  | 3.0 | 3.0 |  |
| CC(C)c1cn(Cc2ccc(S(=N)(=O)C(F)F)cc2)c2nc(C3CC3)nn2c1=O (single isomer, unassigned) [Compound 50] | 0.0316 |  |  |  |
| COCc1nc2n(Cc3ccc(S(C)(=N)=O)cc3)cc(C(C)C)c(=O)n2n1 (stereo not shown) [Compound 33, 6-isopropyl-2-(methoxymethyl)-4-(4-(S-methylsulfonimidoyl)benzyl)-[1,2,4]triazolo[1,5-a]pyrimidin-7(4H)-one] | 0.00794 |  |  |  |
| CC(C)c1cn(Cc2ccc(S(C)(=N)=O)c(F)c2)c2nc(C3CC3)nn2c1=O (stereo not shown) [Compound 63, 2-Cyclopropyl-4-(3-fluoro-4-(S-methylsulfonimidoyl)benzyl)-6-isopropyl-[1,2,4]triazolo[1,5-a]pyrimidin-7(4H)-one] | 0.01 |  |  |  |
| CC(C)c1cn(Cc2ccc(S(C)(=N)=O)c(C(F)(F)F)c2)c2cc(C3CC3)nn2c1=O (stereo not shown) [Compound 20, 2-cyclopropyl-6-isopropyl-4-(4-(S-methylsulfonimidoyl)-3-(trifluoromethyl)benzyl) pyrazolo[1,5-a]pyrimidin-7(4H)-one] | 0.00631 |  |  |  |
| Cc1cc(S(C)(=N)=O)ccc1Cn1cc(C(C)C)c(=O)n2nc(C3CC3)cc12 (stereo not shown) [Compound 61, 2-Cyclopropyl-6-isopropyl-4-(2-methyl-4-(S-methylsulfonimidoyl)benzyl)pyrazolo[1,5-a]pyrimidin-7(4H)-one] | 0.00398 | 3.0 | 3.8 |  |
